Measured values as given in patent US20230285570A1, “THERAPEUTICALLY USEFUL CURE-PRO MOLECULES FOR E3 LIGASE MEDIATED DEGRADATION OF PROTEINS, AND METHODS OF MAKING AND USING THEM” (CORNELL UNIVERSITY, priority 2020, published 2023).
“Also recorded” adds a separate entry of the source.

Assays:
BRD4 [1] = molecular target: T1, BRD4 (Homo sapiens, UniProt O60885); assay: Summary of BRD4 degradation by CURE-PRO pairs, estimated from Western Blot or WES; assay type: cell-based; design: endogenous in cells; conditions: for Degradation of BRD4, combination with CRBN ligand 8066: Table 1, aryl-boronic acid BRD4 ligand + 8066; for Degradation of BRD4, combination with CRBN ligand 8047: Table 1, aryl-boronic acid BRD4 ligand + 8047; for Degradation of BRD4, combination with CRBN ligand 8046: Table 1, aryl-boronic acid BRD4 ligand + 8046; for Degradation of BRD4, combination with VHL ligand 8305: Table 3, aryl-boronic acid BRD4 ligand + 8305
Method: (§1) Namalwa, Ramosm HeLa, MCF7, or HT29 HCT116 cells (2.5-3×10^6) were treated for 24 hours with the indicated compounds solubilized in DMSO. The cells were washed in ice-cold PBS and were then lysed in RIPA lysis buffer (150 mM NaCl, 5 mM EDTA, 1% NP-40, 0.5% sodium deoxycholate, 0.1% SDS, 50 mM Tris, pH 8.0.) with Roche protease inhibitor complete cocktail and phosphatase inhibitors (10 mM sodium fluoride, 10 mM sodium pyrophosphate, 1 mM sodium orthovanadate and 20 mM β-glycerophosphate). The total protein concentrations were determined by Bradford Protein Assay (Pierce) and 10-20 μg of protein was loaded onto 4-15% Tris-Glycine gradient gels (Biorad). After standard gel electrophoresis, the separated proteins were transferred to PVDF membrane by wet transfer. The immunoblots were then blocked for 1 hour in 5% skim milk in TBST or 5% BSA in TBST, according to manufacturer's instructions, before an overnight incubation at 4° C. with indicated antibodies and membranes. Membranes were then incubated with the appropriate horseradish peroxidase-conjugated secondary antibodies (1:5,000 dilution) for 1 h at room temperature and the bands were visualized using the Clarity Max Western ECL Substrate (Biorad) and the ChemiDoc Imaging System (Biorad). Signal was detected with ECL Western Blotting Substrate (Pierce) and X-ray film processed with a Konica SRX-101 X-ray film processor or captured by Bio-Rad's Chemidoc Imaging system.
WES Simple analysis was performed on WES system (ProteinSimple-Biotechne) according to the manufacturer's instructions. Total protein concentrations of cell lysates were determined by the Pierce BCA kit (Thermo Fisher). 3 μL of 0.3 μg/μL of the protein lysate was loaded onto a 12- to 230-kDa WES assay plate (ProteinSimple) where 300 nL sample was withdrawn through a capillary, subjected to electrophoretic separation of proteins by size, and followed by the simultaneous, HRP-based detection of proteins using the Anti-Rabbit Detection Module (Proteinsimple: #DM-001). The electropherograms were checked then the automatic peak detection was manually corrected if it was required.
A black check mark indicates efficacy of 30% to 70% or higher protein degradation.

BRD4 [2] = molecular target: T1, BRD4; assay: CURE-PRO-mediated BRD4 degradation in HeLa cells, Western blot; assay type: cell-based; design: endogenous in cells; host or cells: HeLa; conditions: 24 h
Method: All cell lines were purchased from ATCC or DSMZ and grown at 37° C. with 5% CO2. Human HeLa cells were cultured in complete growth medium (Dulbecco's modified Eagle's medium (DMEM) supplemented with 10% FBS); MCF7 cells were cultured in complete growth medium (Dulbecco's modified Eagle's medium (DMEM) supplemented with 10% FBS and 0.01 mg/ml human recombinant insulin (Sigma Aldrich); Namalwa and Ramos cells were cultured in complete growth medium (RPMI 1640 medium supplemented with 10% FBS); HCT116 and HT29 cells were cultured in complete growth medium (McCoy's 5a Medium supplemented with 10% FBS). For cellular degradation of BRD4 studies cells were seeded in a 12-well plate at 70-80% confluency, allowed to attach overnight, and incubated with the indicated compounds for the indicated time. When indicated, a 15-minute pretreatment with 10 μM pomalidomide, 10 μM VHL298, 10 μM Nutlin3a, 1 μM MG-132 or 1 μM Carfilzomib was performed before the addition of CURE-PROs. For washout studies, after CURE-PRO treatment, media was aspirated and incubated with complete medium for the indicated time before lysis.
as §1
HeLa cells (2.5×10^6) were treated for 24 hours with the sample compounds solubilized in DMSO. Compounds were added at 1-10 μM each. Standardized protein samples were electrophoresed and imaged as described in the immunoblotting description above. FIGS. 6-18 depicts the CURE-PRO-mediated BRD4 degradation for BRD monomers (JQ1 derivatives comprising of catechol linkers), and CRBN ligands, 8048 and 8049 (pomalidomide derivatives comprising boronic acid linkers) combined in a 1:1 ratio.
HeLa cells (2.5×10^6) were treated for 24 hours with the compounds solubilized in DMSO. The compounds were added at 10 μM each. Standardized protein samples were electrophoresed and imaged as described in the immunoblotting section above. FIGS. 23-27 depicts the CURE-PRO-mediated BRD4 degradation for BRD monomers (JQ1 derivatives comprising of boronic acid linkers), and CRBN ligands, 8046, 8047 and 8066 (pomalidomide derivatives comprising diol linkers) combined in a 1:1 ratio.
HeLa cells (2.5×10^6) were treated for 24 hours with the compounds solubilized in DMSO. Compounds were added at 10 μM and 100 μM each. Standardized protein samples were electrophoresed and imaged as described in the immunoblotting section above.
HeLa cells (2.5×10^6) were treated for 24 hours with the compounds solubilized in DMSO. Compounds were added at 1 nM-1 μM each. […]

[3] = co-treated 1:1 with CRBN ligand 8046, HeLa, 10 μM each
[4] = co-treated 1:1 with CRBN ligand 8047, HeLa, 10 μM each
[5] = co-treated 1:1 with CRBN ligand 8066, HeLa, 10 μM each

Row | SMILES | Degradation of BRD4, combination with CRBN ligand 8066 (BRD4 [1]) | Degradation of BRD4, combination with CRBN ligand 8047 (BRD4 [1]) | BRD4 degradation (BRD4 [2]; [4]) | further results
1 | COc1ccc2c(c1)C(c1ccc(Cl)cc1)=N[C@@H](CC(=O)NCCCCCNC(=O)c1ccc(B(O)O)cc1)c1nnc(C)n1-2 [BRD- E07] | √ (A black check mark indicates efficacy of 30% to 70% or higher protein degradation) |  |  | 
2 | COc1ccc2c(c1)C(c1ccc(Cl)cc1)=N[C@@H](CC(=O)NCCNC(=O)Cc1cccc(B(O)O)c1)c1nnc(C)n1-2 [BRD- E38] |  | √ (A black check mark indicates efficacy of 30% to 70% or higher protein degradation) |  | 
3 | CCNC(=O)C[C@@H]1N=C(c2ccc(Cl)cc2)c2cc(OCCOCCNC(=O)c3ccc(B(O)O)cc3)ccc2-n2c(C)nnc21 [BRD- E39] |  |  |  | Degradation of BRD4, combination with CRBN ligand 8046 (BRD4 [1]): √ (A black check mark indicates efficacy of 30% to 70% or higher protein degradation)
4 | CCNC(=O)C[C@@H]1N=C(c2ccc(OCc3ccc(B(O)O)cc3)cc2)c2cc(OC)ccc2-n2c(C)nnc21 [BRD- E54] |  |  |  | Degradation of BRD4, combination with VHL ligand 8305 (BRD4 [1]): √ (A black check mark indicates efficacy of 30% to 70% or higher protein degradation)
5 | CCNC(=O)C[C@@H]1N=C(c2ccc(Cl)cc2)c2cc(OCCOCCOCCNC(=O)c3ccc(O)c(O)c3)ccc2-n2c(C)nnc21 [BRD- N40] |  |  |  | Degradation of BRD4, combination with VHL ligand 8297 (BRD4 [1]; Table 6, aromatic 1,2-diol BRD4 ligand + 8297): √ (A black check mark indicates efficacy of 30% to 70% or higher protein degradation)
6 | COc1ccc2c(c1)C(c1ccc(Cl)cc1)=N[C@@H](CC(=O)Nc1ccc(O)c(O)c1)c1nnc(C)n1-2 [BRD- N68] |  |  |  | Degradation of BRD4, combination with CRBN ligand 8048 (BRD4 [1]; Table 4, aromatic 1,2-diol BRD4 ligand + 8048): √ (A black check mark indicates efficacy of 30% to 70% or higher protein degradation)
7 | COc1ccc2c(c1)C(c1ccc(Cl)cc1)=N[C@@H](CC(=O)NCCCNC(=O)c1cccc(B(O)O)c1)c1nnc(C)n1-2 [BRD-E4] | √ (A black check mark indicates efficacy of 30% to 70% or higher protein degradation) | √ (A black check mark indicates efficacy of 30% to 70% or higher protein degradation) | causes degradation of BRD4; also recorded: Degradation is noted | Degradation of BRD4, combination with CRBN ligand 8046 (BRD4 [1]): √ (A black check mark indicates efficacy of 30% to 70% or higher protein degradation); BRD4 degradation (BRD4 [2]; [3]): causes degradation of BRD4; also recorded: Degradation is noted; BRD4 degradation (BRD4 [2]; [5]): causes degradation of BRD4; also recorded: Degradation is noted
8 | COc1ccc2c(c1)C(c1ccc(Cl)cc1)=N[C@@H](CC(=O)NCCCCNC(=O)c1ccc(B(O)O)cc1)c1nnc(C)n1-2 [BRD-E5] | √ (A black check mark indicates efficacy of 30% to 70% or higher protein degradation) | √ (A black check mark indicates efficacy of 30% to 70% or higher protein degradation) | causes degradation of BRD4; also recorded: Degradation is noted | BRD4 degradation (BRD4 [2]; [5]): causes degradation of BRD4; also recorded: Degradation is noted
9 | COc1ccc2c(c1)C(c1ccc(Cl)cc1)=N[C@@H](CC(=O)NCc1cccc(B(O)O)c1)c1nnc(C)n1-2 [BRD-E10] |  | √ (A black check mark indicates efficacy of 30% to 70% or higher protein degradation) |  | Degradation of BRD4, combination with CRBN ligand 8046 (BRD4 [1]): √ (A black check mark indicates efficacy of 30% to 70% or higher protein degradation); Degradation of BRD4, combination with VHL ligand 8304 (BRD4 [1]; Table 3, aryl-boronic acid BRD4 ligand + 8304): √ (A black check mark indicates efficacy of 30% to 70% or higher protein degradation); BRD4 degradation (BRD4 [2]; 1:1 with CRBN ligand 8046, HeLa, 10 μM and 100 μM each): only demonstrated BRD4 degradation at 100 μM; BRD4 degradation (BRD4 [2]; 1:1 with CRBN ligand 8047, HeLa, 10 μM and 100 μM each): complete degradation at 10 μM
10 | COc1ccc2c(c1)C(c1ccc(Cl)cc1)=N[C@@H](CC(=O)NCCNC(=O)Cc1ccc(B(O)O)cc1)c1nnc(C)n1-2 [BRD-E27, (4-(2-((2-(2-((4S)-6-(4-chlorophenyl)-8-methoxy-1-methyl-4H-benzo[f][1,2,4]triazolo[4,3-a][1,4]diazepin-4-yl)acetamido)ethyl)amino)-2-oxoethyl)phenyl)boronic Acid] |  | √ (A black check mark indicates efficacy of 30% to 70% or higher protein degradation) | causes degradation of BRD4 | 
11 | COc1ccc2c(c1)C(c1ccc(Cl)cc1)=N[C@@H](CC(=O)NCCNC(=O)/C=C/c1cccc(B(O)O)c1)c1nnc(C)n1-2 [BRD-E30, (3-((E)-3-((2-(2-((4S)-6-(4-chlorophenyl)-8-methoxy-1-methyl-4H-benzo[f][1,2,4]triazolo[4,3-a][1,4]diazepin-4-yl)acetamido)ethyl)amino)-3-oxoprop-1-en-1-yl)phenyl)boronic acid] | √ (A black check mark indicates efficacy of 30% to 70% or higher protein degradation) | √ (A black check mark indicates efficacy of 30% to 70% or higher protein degradation) |  | 
12 | CCNC(=O)C[C@@H]1N=C(c2ccc(Cl)cc2)c2cc(OCCOCCOCCNC(=O)c3cccc(B(O)O)c3)ccc2-n2c(C)nnc21 [BRD-E42] |  | √ (A black check mark indicates efficacy of 30% to 70% or higher protein degradation) | causes degradation of BRD4 | 
13 | CCNC(=O)C[C@@H]1N=C(c2ccc(Cl)cc2)c2cc(OCCOCCOCCOCCNC(=O)c3ccc(B(O)O)cc3)ccc2-n2c(C)nnc21 [BRD-E43] | √ (A black check mark indicates efficacy of 30% to 70% or higher protein degradation) | √ (A black check mark indicates efficacy of 30% to 70% or higher protein degradation) | causes degradation of BRD4 | BRD4 degradation (BRD4 [2]; [5]): causes degradation of BRD4; also recorded: Degradation is noted
14 | COc1ccc2c(c1)C(c1ccc(Cl)cc1)=N[C@@H](CC(=O)NCCOCCOCCNC(=O)c1ccc(B(O)O)cc1)c1nnc(C)n1-2 [BRD-E45] | √ (A black check mark indicates efficacy of 30% to 70% or higher protein degradation) |  |  | Degradation of BRD4, combination with VHL ligand 8305 (BRD4 [1]): √ (A black check mark indicates efficacy of 30% to 70% or higher protein degradation); BRD4 degradation (BRD4 [2]; [5]): causes degradation of BRD4
15 | COc1ccc2c(c1)C(c1ccc(Cl)cc1)=N[C@@H](CC(=O)Nc1ccc(B(O)O)cc1)c1nnc(C)n1-2 [BRD-E74, (4-(2-((4S)-6-(4-chlorophenyl)-8-methoxy-1-methyl-4H-benzo[f][1,2,4]triazolo[4,3-a][1,4]diazepin-4-yl)acetamido)phenyl)boronic acid] |  |  | causes degradation of BRD4 | Degradation of BRD4, combination with CRBN ligand 8046 (BRD4 [1]): √ (A black check mark indicates efficacy of 30% to 70% or higher protein degradation); Degradation of BRD4, combination with MDM2 ligand 8314 (BRD4 [1]; Table 2, aryl-boronic acid BRD4 ligand + 8314): √ (A black check mark indicates efficacy of 30% to 70% or higher protein degradation); BRD4 degradation (BRD4 [2]; [3]): causes degradation of BRD4
